Key:
CDC2L5 = molecular target: T1, CDC2L5 (Homo sapiens, UniProt Q14004); test: KINOMEscan scanMAX; type: binding; conditions: CDC2L5, 2000 nM
T1 construct: purchased DiscoverX (KINOMEscan scanMAX service)
Excerpt: (§1) Nat. Biotechnol. 23, 329-336 (2005).
(§2) Percent Control (% Ctrl).
(§3) % Ctrl=100×(TS−CPOS)/(CNEG−CPOS) (eqn 1)

FLT3(ITD) = test: KINOMEscan scanMAX; type: binding; conditions: 2000 nM
Excerpt: as §1, §2, §3

FLT3(ITD, D835V) = test: KINOMEscan scanMAX; type: binding; conditions: 2000 nM
Excerpt: as §1, §2, §3

FLT3(ITD, F691L) = test: KINOMEscan scanMAX; type: binding; conditions: 2000 nM
Excerpt: as §1, §2, §3

PFCDPK1(P. falciparum) = molecular target: T2, PFCDPK1(P. falciparum) (Plasmodium falciparum, UniProt P62344); test: KINOMEscan scanMAX; type: binding; conditions: 2000 nM
T2 construct: DNA label (qPCR read-out); purchased DiscoveRx (KINOMEscan scanMAX)
T2 sequence (P62344 whole entry): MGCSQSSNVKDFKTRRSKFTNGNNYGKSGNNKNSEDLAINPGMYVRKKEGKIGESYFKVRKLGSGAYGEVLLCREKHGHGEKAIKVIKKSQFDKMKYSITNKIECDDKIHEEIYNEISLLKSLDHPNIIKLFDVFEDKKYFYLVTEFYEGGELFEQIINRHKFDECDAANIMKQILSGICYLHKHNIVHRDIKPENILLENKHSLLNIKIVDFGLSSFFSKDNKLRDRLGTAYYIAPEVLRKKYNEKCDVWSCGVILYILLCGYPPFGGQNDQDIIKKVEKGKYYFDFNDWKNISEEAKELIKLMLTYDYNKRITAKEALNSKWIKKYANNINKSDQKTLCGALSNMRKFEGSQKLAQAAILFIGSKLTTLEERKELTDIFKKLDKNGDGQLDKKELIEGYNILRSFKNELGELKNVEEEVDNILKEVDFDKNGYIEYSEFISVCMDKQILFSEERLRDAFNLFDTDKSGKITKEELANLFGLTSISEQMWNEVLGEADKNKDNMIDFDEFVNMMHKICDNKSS
Excerpt: as §1, §2, §3

PFPK5(P. falciparum) = molecular target: T3, PFPK5(P. falciparum) (Plasmodium falciparum, UniProt P61075); test: KINOMEscan scanMAX; type: binding; conditions: 2000 nM
T3 construct: purchased KINOMEscan (DiscoveRx) scanMAX panel
T3 sequence (P61075 whole entry): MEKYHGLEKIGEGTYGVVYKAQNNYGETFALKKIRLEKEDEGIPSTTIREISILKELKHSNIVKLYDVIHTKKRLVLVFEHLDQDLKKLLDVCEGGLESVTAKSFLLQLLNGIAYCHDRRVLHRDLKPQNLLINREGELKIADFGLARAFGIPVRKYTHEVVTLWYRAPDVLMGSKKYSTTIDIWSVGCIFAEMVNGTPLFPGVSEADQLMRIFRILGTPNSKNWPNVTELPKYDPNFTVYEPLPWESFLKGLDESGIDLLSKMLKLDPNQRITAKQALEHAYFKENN
Excerpt: as §1, §2, §3

PKNB(M. tuberculosis) = molecular target: T4, PKNB(M. tuberculosis) (Mycobacterium tuberculosis, UniProt P9WI81); test: KINOMEscan scanMAX; type: binding; conditions: 2000 nM
T4 construct: purchased DiscoveRx (KINOMEscan scanMAX panel)
T4 sequence (P9WI81 whole entry): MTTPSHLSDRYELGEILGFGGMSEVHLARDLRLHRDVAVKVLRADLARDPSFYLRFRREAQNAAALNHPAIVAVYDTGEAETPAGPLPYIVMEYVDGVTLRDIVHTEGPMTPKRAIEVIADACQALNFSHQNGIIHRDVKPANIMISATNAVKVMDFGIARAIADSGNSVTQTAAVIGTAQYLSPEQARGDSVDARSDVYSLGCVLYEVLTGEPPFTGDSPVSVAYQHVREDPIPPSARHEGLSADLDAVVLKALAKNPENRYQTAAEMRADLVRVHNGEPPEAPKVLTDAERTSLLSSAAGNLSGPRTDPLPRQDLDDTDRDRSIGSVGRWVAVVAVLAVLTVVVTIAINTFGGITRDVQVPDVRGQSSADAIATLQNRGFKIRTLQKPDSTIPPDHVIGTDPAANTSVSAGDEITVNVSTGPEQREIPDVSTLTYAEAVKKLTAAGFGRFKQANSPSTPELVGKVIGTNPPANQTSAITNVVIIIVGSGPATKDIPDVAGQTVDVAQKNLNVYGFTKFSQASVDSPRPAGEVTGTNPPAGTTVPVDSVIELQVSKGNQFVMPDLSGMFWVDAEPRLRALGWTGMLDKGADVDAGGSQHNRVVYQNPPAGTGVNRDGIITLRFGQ
Excerpt: as §1, §2, §3

PRP4 = molecular target: T5, PRP4 (Homo sapiens, UniProt Q13523); test: KINOMEscan scanMAX; type: binding; conditions: PRP4, 2000 nM
T5 construct: DNA label (qPCR read-out); purchased DiscoverX (KINOMEscan)
T5 sequence (Q13523 whole entry): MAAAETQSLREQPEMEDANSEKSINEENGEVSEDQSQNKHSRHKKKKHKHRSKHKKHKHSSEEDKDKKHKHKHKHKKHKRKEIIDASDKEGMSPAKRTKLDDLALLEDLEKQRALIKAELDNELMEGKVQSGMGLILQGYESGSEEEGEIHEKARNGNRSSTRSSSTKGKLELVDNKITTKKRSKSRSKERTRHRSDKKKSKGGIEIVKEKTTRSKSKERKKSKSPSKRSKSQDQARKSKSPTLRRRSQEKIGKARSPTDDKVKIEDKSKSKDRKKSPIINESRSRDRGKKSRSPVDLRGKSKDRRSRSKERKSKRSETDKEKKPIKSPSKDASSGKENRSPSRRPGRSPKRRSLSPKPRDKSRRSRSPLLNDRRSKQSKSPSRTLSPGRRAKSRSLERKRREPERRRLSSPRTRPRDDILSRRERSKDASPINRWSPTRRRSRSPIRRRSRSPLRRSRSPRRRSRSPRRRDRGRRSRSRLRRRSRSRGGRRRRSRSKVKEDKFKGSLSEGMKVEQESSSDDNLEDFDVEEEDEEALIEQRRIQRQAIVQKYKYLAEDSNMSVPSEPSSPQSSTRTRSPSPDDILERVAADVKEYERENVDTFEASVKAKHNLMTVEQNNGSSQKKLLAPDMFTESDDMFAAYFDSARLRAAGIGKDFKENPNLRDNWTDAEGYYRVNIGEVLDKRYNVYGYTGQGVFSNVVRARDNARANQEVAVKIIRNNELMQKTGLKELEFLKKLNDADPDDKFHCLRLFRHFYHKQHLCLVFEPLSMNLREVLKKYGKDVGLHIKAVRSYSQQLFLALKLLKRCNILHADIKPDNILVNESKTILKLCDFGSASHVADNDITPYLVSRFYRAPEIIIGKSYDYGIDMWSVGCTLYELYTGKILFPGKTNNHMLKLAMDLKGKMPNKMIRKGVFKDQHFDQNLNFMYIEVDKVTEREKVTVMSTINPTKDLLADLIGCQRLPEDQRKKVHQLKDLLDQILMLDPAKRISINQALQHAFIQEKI
Excerpt: as §1, §2, §3

MYC-CAP-CR cells [1] = test: Short-term cell proliferation assay, MYC-CAP-CR; type: cell-based, murine; conditions: androgen-containing media
Excerpt: (§4) MYC-CaP-CR cells (Ellis L. et al., 2012. Prostate 72(6):587-591) were selected for castration resistance from genetically engineered MYC-CaP cells that express MYC from an AR-responsive promoter (Watson P A, et al., 2005. Cancer Res 65(24):11565-11571). Castration resistance in these cells is associated with the overexpression of full-length AR rather than an AR variant, such as AR-V7 in 22rv1 (Olson B M, et al., 2017. Cancer immunology research 5(12):1074-1085).

MYC-CAP-CR cells [2] = test: Long-term clonogenic assay, MYC-CaP-CR; type: cell-based, murine; conditions: 1 μM Senexin B, 1 μM 15u, 5 μM enzalutamide
Excerpt: as §4

[3] = Oral PK by formulation, male Sprague Dawley rats 30 mg/kg; type: in vivo, rat; conditions: oral 30 mg/kg
Description: We have also compared the PK of Suspension Vehicle 1 and Liquid formulation 2 in male Sprague Dawley rats, after oral administration at 30 mg/kg.

[4] = Maximum solubility of 15u in individual excipients; type: physicochemical; parameters: key to XRPD Pattern (API = A): API = A
Description: The binary mixtures were incubated on a shaker with temperature control either at 25° C. or 40° C. for at least 48 hours. The mixtures were filtered with 0.45 μm filters to separate the solid and liquid portions. PLC was performed on the on the liquid portion to determine the maximum solubility. XRPD was performed on the collected solid to check polymorph change.

in vivo = conditions: female, CD-1, mouse, in vivo, po, 30 mg/kg
CSNK1E = CSNK1E (Homo sapiens, UniProt P49674); test: Kd Elect binding assay (DiscoverX)
Chain of CSNK1E (P49674 whole entry): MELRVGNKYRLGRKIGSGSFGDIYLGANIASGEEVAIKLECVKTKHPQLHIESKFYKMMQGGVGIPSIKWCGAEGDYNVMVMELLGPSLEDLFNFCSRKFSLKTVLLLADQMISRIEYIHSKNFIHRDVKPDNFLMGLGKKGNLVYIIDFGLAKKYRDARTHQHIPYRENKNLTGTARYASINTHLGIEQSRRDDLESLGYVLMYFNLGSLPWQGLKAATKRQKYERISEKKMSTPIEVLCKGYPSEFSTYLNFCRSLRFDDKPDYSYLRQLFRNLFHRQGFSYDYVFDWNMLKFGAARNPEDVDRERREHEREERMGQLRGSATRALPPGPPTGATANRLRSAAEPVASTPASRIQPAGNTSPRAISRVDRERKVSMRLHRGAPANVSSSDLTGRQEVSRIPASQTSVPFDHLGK

[5] = Oral PK by formulation, male FVB mice 50 mg/kg; conditions: for Elimination rate k: male FVB

T1 sequence (Q14004 whole entry): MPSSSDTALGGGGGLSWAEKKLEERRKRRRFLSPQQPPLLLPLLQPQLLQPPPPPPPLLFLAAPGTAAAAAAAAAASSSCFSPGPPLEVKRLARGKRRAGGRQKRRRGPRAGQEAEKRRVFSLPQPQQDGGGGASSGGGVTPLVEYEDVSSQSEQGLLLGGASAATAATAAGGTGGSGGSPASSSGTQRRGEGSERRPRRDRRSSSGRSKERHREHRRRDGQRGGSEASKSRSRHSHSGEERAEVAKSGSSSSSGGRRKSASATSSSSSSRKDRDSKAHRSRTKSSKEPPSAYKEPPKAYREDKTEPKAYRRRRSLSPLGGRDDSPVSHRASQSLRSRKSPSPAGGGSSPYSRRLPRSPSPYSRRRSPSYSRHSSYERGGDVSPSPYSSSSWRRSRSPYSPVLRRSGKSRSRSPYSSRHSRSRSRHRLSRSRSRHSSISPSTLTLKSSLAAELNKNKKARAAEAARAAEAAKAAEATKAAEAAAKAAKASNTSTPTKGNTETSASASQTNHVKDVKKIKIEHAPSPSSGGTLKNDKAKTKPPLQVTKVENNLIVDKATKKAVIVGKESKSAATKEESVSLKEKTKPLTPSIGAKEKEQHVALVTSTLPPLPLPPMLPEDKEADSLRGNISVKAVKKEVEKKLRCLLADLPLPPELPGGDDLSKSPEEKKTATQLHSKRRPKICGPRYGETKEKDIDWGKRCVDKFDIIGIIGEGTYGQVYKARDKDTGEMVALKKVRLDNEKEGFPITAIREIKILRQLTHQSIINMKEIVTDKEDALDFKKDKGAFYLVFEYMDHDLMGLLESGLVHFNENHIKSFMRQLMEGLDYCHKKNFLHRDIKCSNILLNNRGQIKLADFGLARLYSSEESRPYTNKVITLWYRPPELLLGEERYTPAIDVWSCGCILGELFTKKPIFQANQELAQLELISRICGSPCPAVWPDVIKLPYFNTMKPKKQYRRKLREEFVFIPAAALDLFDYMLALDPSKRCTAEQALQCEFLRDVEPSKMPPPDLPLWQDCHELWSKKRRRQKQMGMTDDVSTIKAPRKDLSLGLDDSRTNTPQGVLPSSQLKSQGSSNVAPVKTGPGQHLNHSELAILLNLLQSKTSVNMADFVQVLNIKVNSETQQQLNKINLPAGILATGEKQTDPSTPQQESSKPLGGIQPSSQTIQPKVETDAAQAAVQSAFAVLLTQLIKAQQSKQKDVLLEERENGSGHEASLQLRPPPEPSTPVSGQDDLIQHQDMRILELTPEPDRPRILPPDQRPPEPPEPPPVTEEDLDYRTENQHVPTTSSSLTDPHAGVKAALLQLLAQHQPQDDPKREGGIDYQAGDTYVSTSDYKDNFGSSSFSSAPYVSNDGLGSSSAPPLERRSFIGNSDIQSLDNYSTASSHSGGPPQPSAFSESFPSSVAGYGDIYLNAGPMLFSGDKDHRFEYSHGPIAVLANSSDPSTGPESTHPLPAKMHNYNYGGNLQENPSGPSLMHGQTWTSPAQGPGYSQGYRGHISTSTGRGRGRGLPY

SMILES: CN(C)C(=O)c1ccc(N2CCCN(c3ccnc4sc(C(N)=O)c(N)c34)CC2)cc1 [Compound 15u, 3-amino-4-(4-(4-(dimethylcarbamoyl)phenyl)-1,4-diazepan-1-yl)thieno[2,3-b]pyridine-2-carboxamide]
- % Ctrl (CDC2L5): 71 % Ctrl
- % Ctrl (FLT3(ITD)): 82 % Ctrl
- % Ctrl (FLT3(ITD, D835V)): 41 % Ctrl
- % Ctrl (FLT3(ITD, F691L)): 95 % Ctrl
- % Ctrl (PFCDPK1(P. falciparum)): 94 % Ctrl
- % Ctrl (PFPK5(P. falciparum)): 68 % Ctrl
- % Ctrl (PKNB(M. tuberculosis)): 100 % Ctrl
- % Ctrl (PRP4): 100 % Ctrl
- MYC-CAP-CR cell growth (MYC-CAP-CR cells [1]): little effect
- MYC-CaP-CR colony formation (MYC-CAP-CR cells [2]): decreased MYC-CaP-CR colony formation
- increase of AUC, Liquid formulation 2 vs Suspension Vehicle 1 [3]: > 3 fold
- Maximum Solubility ([4]; Capryol 90): 2.9 mg/g
- Maximum Solubility ([4]; Crodamol GMCC SS): 5.5 mg/g
- Maximum Solubility ([4]; Gelucire 44/14): 3.4 mg/g
- Maximum Solubility ([4]; Kolliphor EL): 1.3 mg/g
- Maximum Solubility ([4]; Labrafac PG): 0.0 mg/g
- Maximum Solubility ([4]; Labrafil M2125CS): 0.4 mg/g
- Maximum Solubility ([4]; Labrasol): 5.4 mg/g
- Maximum Solubility ([4]; Lecithin): 1.9 mg/g
- Maximum Solubility ([4]; Maisine CC): 2.4 mg/g
- Maximum Solubility ([4]; Miglyol 812N): 0.0 mg/g
- Maximum Solubility ([4]; Oleic Acid): 0.8 mg/g
- Maximum Solubility ([4]; Olive Oil): 0.0 mg/g
- Maximum Solubility ([4]; PEG 300): 19.8 mg/g
- Maximum Solubility ([4]; PEG 400): 11.8 mg/g
- Maximum Solubility ([4]; PEG 600): 18.3 mg/g
- Maximum Solubility ([4]; Peceol): 2.5 mg/g
- Maximum Solubility ([4]; Sesame Oil): 0.0 mg/g
- Maximum Solubility ([4]; Span 20): 8.0 mg/g
- Maximum Solubility ([4]; Span 80): 1.4 mg/g
- Maximum Solubility ([4]; Transcutol HP): 3.4 mg/g
- Maximum Solubility ([4]; Tween 80): 1.9 mg/g
- Maximum Solubility ([4]; Vitamin E TPGS): 14.6 mg/g
- XRPD Pattern (API = A) ([4]; solid collected from Capryol 90): A
- XRPD Pattern (API = A) ([4]; solid collected from Crodamol GMCC SS): A
- XRPD Pattern (API = A) ([4]; solid collected from Kolliphor EL): A
- XRPD Pattern (API = A) ([4]; solid collected from Labrafac PG): A
- XRPD Pattern (API = A) ([4]; solid collected from Labrafil M2125CS): A
- XRPD Pattern (API = A) ([4]; solid collected from Labrasol): A
- XRPD Pattern (API = A) ([4]; solid collected from Lecithin): A
- XRPD Pattern (API = A) ([4]; solid collected from Maisine CC): A
- XRPD Pattern (API = A) ([4]; solid collected from Miglyol 812N): A
- XRPD Pattern (API = A) ([4]; solid collected from Oleic Acid): A
- XRPD Pattern (API = A) ([4]; solid collected from Olive Oil): A
- XRPD Pattern (API = A) ([4]; solid collected from PEG 300): A
- XRPD Pattern (API = A) ([4]; solid collected from PEG 400): A
- XRPD Pattern (API = A) ([4]; solid collected from PEG 600): A
- XRPD Pattern (API = A) ([4]; solid collected from Peceol): A
- XRPD Pattern (API = A) ([4]; solid collected from Sesame Oil): A
- XRPD Pattern (API = A) ([4]; solid collected from Span 20): A
- XRPD Pattern (API = A) ([4]; solid collected from Span 80): A
- XRPD Pattern (API = A) ([4]; solid collected from Tween 80): A
- AUC(0-t) (in vivo): 6600 ng·h/mL
- Kd (CSNK1E): 280 nM
- Elimination rate k ([5]; LF-V#1, oral 50 mg/kg): 0.13 h⁻¹
- Elimination rate k ([5]; Sus-V#1, oral 50 mg/kg): 0.25 h⁻¹
- increase of AUC, Liquid formulation 1 vs Suspension Vehicle 1 ([5]; oral 50 mg/kg, male FVB mice): 2.3 fold
- increase of t1/2, Liquid formulation 1 vs Suspension Vehicle 1 ([5]; oral 50 mg/kg, male FVB mice): ~2 fold

Source: patent publication US20220226343A1, “3-AMINO-4-[4-[4 (DIMETHYLCARBAMOYL) PHENYL]-1,4-DIAZEPAN-1-YL]THIENO[2,3-B]PYRIDINE-2-CARBOXAMIDE FOR USE IN CANCER THERAPY AND FORMULATIONS COMPRISING THE SAME” (University of South Carolina, priority 2019, published 2022)
